# In patent publication US10799501B2, “Combination of an inhibitor of PARP with an inhibitor of GSK-3 or DOT1L” (King's College London, priority 2015, dated 2020):
# What was measured:
# [1] = system: PML-RARα transformed cells; experiment: In vitro drug treatment of primary murine hematopoietic cells transformed by PML-RARα (RTTA); format: cell-based, mouse
# Protocol: Transduction using concentrated viral supernatant expressing the oncogene of interest was carried out by centrifugation (spinoculation) at 800 g at 32° C. for 2 hours in the presence of 5 μg ml^-1 polybrene (Sigma-Aldrich). Cells were subsequently plated in 1% methylcellulose medium ([…]; Stem Cell Technologies) containing 20 ngml^-1 SCF, 10 ngml^-1 IL-3, 10 ngml^-1 IL-6 and 10 ngml^-1 granulocyte macrophage colony-stimulating factor (GM-CSF) and appropriate selection antibiotic. Colonies were counted after 7 days of culture and replated every 6-7 days at 5×103-1.5×10^4 cell density. Re-plating was performed weekly to generate primary cell lines for further analysis. After the third or fourth round of plating, cells were cultured in R20/20 medium (RPMI 1640, 20% FCS, 20% WEHI-conditioned medium, 2 mM L-glutamine, 100 U/ml penicillin, and 100 μg/ml streptomycin) supplemented with 20 ngml^-1 stem cell factor (SCF), 10 ngml^-1 interleukin (IL)-3, and 10 ngml^-1 IL-6 to establish cell lines. All recombinant murine cytokines were from PeprotechEC. […] Colonies were scored 6-7 days after plating. For other in vitro studies, mouse leukemic cells and primary AML cell lines were subjected to continuously Olaparib (1 μM) or LiCl (8 mM) treatment in liquid culture for whole duration as indicated in the figures or figure legends. For human leukemic cell lines, experiments were performed as described above with 5 μM Olaparib. For each assay 1×10^5 cells were collected, washed in PBS and re-suspended in Annexin V binding solution (25 mM Hepes, 140 mM KCl, 2.5 mM CaCl2 pH 7.2). After centrifugation at 500 g for five minutes the cells were incubated with the Annexin V Binding solution containing 0.25 ug/ml mouse anti Annexin V-FITC antibody (Biolegend 640906) and 1 ug/ml propidium iodide in the dark for 30 minutes at 4° C. Samples were then washed in PBS analysed at the FACS LSRII (BD Biosciences Pharmingen) with FACS Diva. Cells were cytospun onto a glass slide at 400 g for 5 minutes and then fixed for 10 minutes with 2% formaldehyde/0.2% glutaraldehyde (Sigma Aldrich). Cells were then washed with PBS, and then incubated at 37° C. for at least 2 hours with a staining solution (30 mM Citric Acid/Phosphate buffer, 5 mM K4Fe(CN)6, 5 mM K3Fe(CN)6, 150 mM NaCl, 2 mM MgCl2, 1 mg/ml X-Gal) (All reagents from Sigma-Aldrich)62. Cells were counted in at least 5 fields for each slide, for a total of over 100 cells. The percentage of senescent cells was calculated by the percentage of the number of blue cell in the field. Cells were cytospun onto a glass slide at 400 g for 5 minutes and then fixed for 30 minutes in 4% PFA and permeabilized and blocked in 0.8% Tx-100, 10% FBS/1% BSA (Sigma-Aldrich) in PBS for 15 min at room temperature. Mouse anti mouse γH2AX ([…]) (Upstate clone JBW301#05-636) and rabbit anti mouse RAD51 (Santa Cruz Biotecnology […]# sc-8349) were diluted in TBS containing 10% FBS/1% BSA and incubated overnight at 4C. […] Slides were then washed five times at 10 min each with PBS. Slides were briefly washed in water and air-dried prior to mounting with Mowiol-DABCO and a coverslip. Cells were counted in at least 5 fields for each slide, for a total of over 100 cells per condition. 1×10^5 cells were cytospun for 5 min at 300 g onto glass slides. Slides were then stained with May-Grunwald solution (Sigma-Aldrich) for 3 min at room temperature. After washing in water, they were incubated for 20 min in Giemsa solution (Sigma-Aldrich) (1:20 in water). Slides were washed again in water before being mounted with Mowiol. Cells were counted in at least 5 fields for each slide, for a total of over 100 cells per condition. NBT reduction assay were performed to determine myeloid differentiation. 0.1% of NBT (final concentration) was added to the liquid culture or semi-solid methocult and incubated at 37° C. CO2 incubator for 3 hrs and 12 hrs, respectively. […]
# [2] = system: MLL-AF9 Hoxa9−/− transformed cells; experiment: In vitro PARPi treatment of MLL-AF9 transformed cells from Hoxa9−/− background; format: cell-based, mouse
# Protocol: Transduction using concentrated viral supernatant expressing the oncogene of interest was carried out by centrifugation (spinoculation) at 800 g at 32° C. for 2 hours in the presence of 5 μg ml^-1 polybrene (Sigma-Aldrich). Cells were subsequently plated in 1% methylcellulose medium ([…]; Stem Cell Technologies) containing 20 ngml^-1 SCF, 10 ngml^-1 IL-3, 10 ngml^-1 IL-6 and 10 ngml^-1 granulocyte macrophage colony-stimulating factor (GM-CSF) and appropriate selection antibiotic. Colonies were counted after 7 days of culture and replated every 6-7 days at 5×103-1.5×10^4 cell density. Re-plating was performed weekly to generate primary cell lines for further analysis. After the third or fourth round of plating, cells were cultured in R20/20 medium (RPMI 1640, 20% FCS, 20% WEHI-conditioned medium, 2 mM L-glutamine, 100 U/ml penicillin, and 100 μg/ml streptomycin) supplemented with 20 ngml^-1 stem cell factor (SCF), 10 ngml^-1 interleukin (IL)-3, and 10 ngml^-1 IL-6 to establish cell lines. All recombinant murine cytokines were from PeprotechEC. […] Colonies were scored 6-7 days after plating. […] Cells were counted in at least 5 fields for each slide, for a total of over 100 cells. The percentage of senescent cells was calculated by the percentage of the number of blue cell in the field.
smiles,measurement,setting,value
"O=C(c1cc(Cc2n[nH]c(=O)c3ccccc23)ccc1F)N1CCN(C(=O)C2CC2)CC1 [Olaparib, 4-[(3-[(4-cyclopropylcarbonyl)piperazin-4-yl]carbonyl)-4-fluorophenyl]methyl(2H)-phthalazin-1-one]",suppression of colony forming ability,"[1]; 1 uM Olaparib, methylcellulose 7 days, p<0.001",about 90%
same,apoptosis (Annexin V/PI),[1]; PARPi 24 hrs and 48 hrs,induced apoptosis
same,senescence (β-galactosidase staining),[1]; PARPi 24 hrs and 48 hrs,underwent significant senescence
same,Rad51 recruitment to DNA damage sites (RAD51 foci),[1]; PARPi treatment for 6 hours,no significant Rad51 recruitment
same,percentage of differentiation (morphology and NBT reduction),[1]; time course PARPi treatment,significantly increased the percentage of differentiation
same,cells with γH2AX and Rad51 foci ratio greater than 2,[1]; upon PARPi treatment,around 80%
same,senescence (β-galactosidase staining),[2]; 48 hrs PARPi treatment,induction of senescence
same,colony forming ability and differentiation,[2]; seven days in methylcellulose with PARPi,significant suppression of colony forming ability and differentiation
